From US11376214B2, “Compositions and methods for treatment of ocular diseases” (KIORA PHARMACEUTICALS, INC., priority 2019, dated 2022)
Counter-ions that a name gives are not always drawn. Like-named read-outs stand apart in the source and are kept apart here.

Assays:
[1] = cited from earlier work
[2] = Release of antibiotic from hydrogel or PBS in dialysis chamber; format: physicochemical
Method: For this assessment, a 0.5 ml sample of hydrogel plus drug or PBS plus drug was placed into a medi-dialysis chamber, and the chamber was placed in a beaker containing 100 ml of PBS. The remaining amount of drug in the dialysis chamber was monitored using UV spectroscopy at various time points. […] The release was monitored as described above. […] Another drug release study was performed, with Moxi-FB and Besi-HCl as the antibiotics, a hydrogel with 7.5 mg/ml CMHA-S, and the antibiotics incorporated at 10 mg/ml. For this study, the samples were placed in a dialysis chamber that was then placed in a tube that contained 10 ml of PBS. The dialysis chamber was transferred to a new tube at each time point, and the dialysate was analyzed by UV absorption (rather than the material inside the dialysis chamber), and the released amount of drug was calculated (rather than the amount remaining). In this experimental set-up, drug release from the hydrogel was slower than from PBS (FIGS. 4A and 4B). Despite the poor water solubility of Besi-HCl compared to Moxi-FB, Besi-HCl was still released from the hydrogel.

pH by pH meter = format: physicochemical; details: antibiotic 1 mg/ml incorporated in hydrogel (CMHA-S about 7.5 mg/ml)
Method: (§1) Viscosity, pH, and refractive index (RI) were measured for hydrogels described in Example 2 with and without antibiotic incorporated. […] Viscosity was determined as described in Example 1. RI was measured with a refractometer and pH was measured with a pH meter.

Staphylococcus aureus = assay: Zone of inhibition (ZOI) study of dialysate samples; format: cell-based; details: S. aureus
Method: (§2) To verify the efficacy of a drug in the hydrogel, zone of inhibition (ZOI) studies were conducted. […] Samples of the dialysate were collected at 0, 1, 2, 4, and 8 hours. Filter paper disks were soaked in each sample, placed on a bacteria-inoculated plate, and the ZOIs were compared between PBS group and hydrogel group.

Pseudomonas aeruginosa = assay: as above; format: cell-based; details: P. aeruginosa
Method: as §2

[3] = Refractive index by refractometer; format: physicochemical; details: antibiotic 1 mg/ml incorporated in hydrogel (CMHA-S about 7.5 mg/ml)
Method: as §1

[4] = Rheological testing (parallel plate rheometer): viscosity and shear-thinning; format: physicochemical; details: antibiotic 1 mg/ml incorporated in hydrogel (CMHA-S about 7.5 mg/ml)
Method: Thiol-modified carboxymethyl HA (CMHA-S) was synthesized as described in Lawyer et al. and Wendling et al., with a thiol modification of 0.1, 0.2, 0.4, or 0.7 μmol thiol/mg. Hydrogels were created by dissolving CMHA-S in phosphate-buffered saline (PBS; pH 7.4). The CMHA-S was disulfide crosslinked under continuous mixing with the addition of sodium hypochlorite. Rheological testing was performed using a parallel plate format rheometer with a 25 mm-diameter stainless steel geometry. Samples (5-6 ml) of hydrogel were placed in a 35 mm Petri dish, and the geometry was lowered to a gap of 5 mm. To determine viscosity and shear-thinning, the shear rate was varied from 0.1 to 10 Hz. A decreasing viscosity as shear rate increases indicates shear-thinning behavior. Table 1 provides the thiol modification of the CMHA-S, concentration of CMHA-S, and resultant viscosity of the hydrogel (at 2.5 Hz) for 4 hydrogel formulations.
as §1

[5] = released from PBS (1 mg/ml), dialysate at 4 hrs
[6] = released from PBS (1 mg/ml), dialysate at 8 hrs
[7] = released from hydrogel (CMHA-S 7.5 mg/ml, drug 1 mg/ml), dialysate at 8 hrs

For N[C@@H]1CCCCN(c2c(F)cc3c(=O)c(C(=O)O)cn(C4CC4)c3c2Cl)C1 [Besi-HCl, besifloxacin hydrochloride], the solubility in water [1] is listed as “about 1 mg/ml” and the “drug release from hydrogel compared with PBS” value ([2]; antibiotic 10 mg/ml in hydrogel with 7.5 mg/ml CMHA-S, dialysis chamber in 10 ml PBS, new tube at each time point, dialysate UV) is listed as “slower”.
In the case of COc1c(N2C[C@@H]3CCCN[C@@H]3C2)c(F)cc2c(=O)c(C(=O)O)cn(C3CC3)c12 [Moxi-FB, moxifloxacin], the solubility in water [1] is listed as “about 1 mg/ml”.
COc1c(N2C[C@@H]3CCCN[C@@H]3C2)c(F)cc2c(=O)c(C(=O)O)cn(C3CC3)c12 [Moxi-HCl, moxifloxacin hydrochloride] gave a pH (pH by pH meter; hydrochloride) of 7.0, a ZOI (Staphylococcus aureus; released from PBS (1 mg/ml), dialysate at 2 hrs) of 28.3 ± 1.0 mm and a ZOI (Staphylococcus aureus; [5]) of 26.5 ± 2.5 mm. It also gave a ZOI (Staphylococcus aureus; [6]) of 23.5 ± 2.8 mm, a ZOI (Staphylococcus aureus; [7]) of 27.2 ± 1.3 mm and a ZOI (Pseudomonas aeruginosa; [5]) of 24.7 ± 2.8 mm. It also gave a ZOI (Pseudomonas aeruginosa; [6]) of 20.5 ± 1.8 mm, a ZOI (Pseudomonas aeruginosa; released from hydrogel (CMHA-S 7.5 mg/ml, drug 1 mg/ml), dialysate at 1 hrs) of 28.7 ± 0.3 mm and a ZOI (Pseudomonas aeruginosa; released from hydrogel (CMHA-S 7.5 mg/ml, drug 1 mg/ml), dialysate at 4 hrs) of 26.8 ± 1.4 mm. The ZOI (Pseudomonas aeruginosa; [7]) was 26.5 ± 3.2 mm, the solubility in water ([1]; hydrochloride) was roughly 20 mg/mL and the Refractive index ([3]; hydrochloride) was 1.3355. The “Viscosity at 2.5 Hz” value ([4]; hydrochloride) was 1.6 Pa · s, the “drug release from hydrogel compared with PBS” value ([2]; drug 1 mg/ml in hydrogel #4 (CMHA-S 4.0 mg/ml)) was “slightly slower” and the “time within which release was complete” value ([2]; drug 1 mg/ml in hydrogel #4 (CMHA-S 4.0 mg/ml), medi-dialysis chamber in 100 ml PBS) was no more than 4 h. The “drug release from hydrogel compared with PBS” value ([2]; drug 1 mg/ml in hydrogel (CMHA-S about 7.5 mg/ml), medi-dialysis chamber in 100 ml PBS) was “only slightly slowed down”.
For NC[C@H]1O[C@H](O[C@H]2[C@H](O)[C@@H](O[C@H]3O[C@H](CO)[C@@H](O)[C@H](N)[C@H]3O)[C@H](N)C[C@@H]2N)[C@H](N)C[C@@H]1O [Tobramycin, tobramycin], the pH (pH by pH meter) is listed as 8.6, the solubility in water [1] is listed as greater than 50 mg/mL and the Refractive index [3] is listed as 1.3355. The “Viscosity at 2.5 Hz” value [4] was 1.4 Pa · s.
